In paper PMC12040169 (PLOS Biology, 2025):

Assay: in vitro
Details: human, hela cells, % viability

Compared with CCOc1ccc(CC(=O)NC[C@H]2CC[C@H](c3cc(C(N)=O)c4ccccc4n3)CC2)cc1 [CBK285899], CNc1cc(C(=O)N[C@@H]2CCOC[C@H]2Oc2ccc(CO)cc2)ccn1 [CBK306606] is higher in viability at 28.5 h, 10 µM: 92.2% for the first, 98.1% for the second.

First: CCOC(=O)C1CCN(Cn2nc(O)ccc2=O)CC1 [CBK263331]
Second: CCOC(=O)C1(Cc2ccc(F)cc2F)CCCN(C(C)=O)C1 (stereo not shown) [CBK307516]
The viability at 28.5 h, 10 µM of the first is lower: 90.7% for the first, 106% for the second.

First: CCN1CCN(Cc2cc(Cl)ccc2OCCCn2ccnc2)CC1 [CBK306990]
Second: CN1CCN(C(=O)c2cccc(-c3nccnc3NCc3cccc(Cl)c3)c2)CC1 [CBK037048]
The viability at 28.5 h, 10 µM of the first is lower: 83.2% for the first, 108% for the second.

Going from O=C(CO)N1CC2(CCN(Cc3ccc4ccccc4c3)CC2)c2ccccc21 [CBK131501] to O=C(c1ccccc1)N1C[C@@H](c2ccsc2)[C@@H]2CN(Cc3ccccc3Cl)CC[C@@H]21 [CBK285613], the viability at 28.5 h, 10 µM rises from 88.7% to 101%.

First: COc1ccc(OC)c(C2=NO[C@@](CC(=O)O)(C(=O)NC3CCCCC3)C2)c1 [CBK286672]
Second: CNC1CCC2(c3ccc(OC)c(OC)c3)CCN(C)C2C1 (stereo not shown) [CBK059586C]
The viability at 28.5 h, 10 µM of the first is higher: 92.1% for the first, 87.3% for the second.

Going from CN(C)c1ncc(-c2ccc(O)cc2)cc1C(=O)NCc1ccc(F)cc1 [CBK106396] to CCN(CC(=O)NCc1ccc(F)cc1)S(=O)(=O)c1ccccc1C#N [CBK305842], the viability at 28.5 h, 10 µM falls from 91.5% to 91.1%.

First: CC(NC(=O)N1CCc2ccccc2C1)c1ccccc1 (stereo not shown) [CBK155310]
Second: C[C@H](c1ccccc1)n1c(=O)[nH]c2ncc(-c3ccc(C(=O)N4CCN(C)CC4)cc3)nc21 [CBK064559]
The viability at 28.5 h, 10 µM of the first is higher: 102% for the first, 101% for the second.

First: CC(=O)Nc1sc2c(c1C(=O)O)CCc1ccccc1-2 [CBK126812]
Second: CC1CCc2c(C(=O)Nc3ncc(Cc4ccccc4)s3)csc2C1 (stereo not shown) [CBK300531]
The viability at 28.5 h, 10 µM of the first is higher: 96.9% for the first, 94.6% for the second.

First: Cc1nsc2c1[C@H]1[C@H](O)[C@H](O)C[C@H]1C1(CCC1)N2 [CBK303258]
Second: CC(=O)NCCN1CCC(O)(c2ccc(C)cc2)CC1 [CBK283321]
The viability at 28.5 h, 10 µM of the first is higher: 100% for the first, 87.6% for the second.

Compared with O=C(Nc1ccc2oc(-c3cccnc3)nc2c1)c1sc2cc(Cl)ccc2c1Cl [CBK267876], Cc1cc(C)c2oc(-c3ccc(C)c(NC(=O)COc4ccccc4C)c3)nc2c1 [CBK263067] is higher in viability at 28.5 h, 10 µM: 97.4% for the first, 103% for the second.

Going from O=C(O)c1ccc(NS(=O)(=O)c2cc(Cl)sc2Cl)cc1 [CBK034046] to O=C(O)c1ccc(S(=O)(=O)N2CCOCC2)cc1 [CBK287201], the viability at 28.5 h, 10 µM falls from 99.9% to 82.2%.

Going from CCn1c(=O)n(CC(=O)N2CCCCCC2)c2cccnc21 [CBK283942] to Cn1ccnc1C1CCN(C(=O)NCc2cccc(F)c2)CC1 [CBK304606], the viability at 28.5 h, 10 µM falls from 97.1% to 91.3%.

Going from O=C(Nc1nc(-c2ccccc2)cs1)c1ccc(N2C(=O)CCC2=O)cc1 [CBK287333] to COc1cccc(C(=O)Nc2nc(-c3ccc(S(=O)(=O)N4CCCC4)cc3)cs2)c1 [CBK096257], the viability at 28.5 h, 10 µM falls from 97.7% to 89%.

Compared with Cn1c(=O)c2[nH]c(-c3ccncc3)nc2n(C)c1=O [CBK287902], Cc1ccccc1-n1sc(=O)n(Cc2ccc(F)cc2)c1=O [CBK113605] is higher in viability at 28.5 h, 10 µM: 92.5% for the first, 101% for the second.

First: CC(=O)c1ccc(-c2ccc(C(=O)NCC3COc4ccccc4O3)c(NCc3cccnc3)n2)s1 (stereo not shown) [CBK076608]
Second: O=C(C1COc2ccccc2O1)N1CCN(c2ncccn2)CC1 (stereo not shown) [CBK144502]
The viability at 28.5 h, 10 µM of the first is lower: 97.9% for the first, 116% for the second.

Going from Cc1nn(C)cc1CN1CCCC1c1nc(N(C)C)ncc1-c1cccc(Cl)c1 (stereo not shown) [CBK286501] to COc1cc(-c2cn3ccnc3c(NCC3CC3)n2)ccc1O [CBK037538], the viability at 28.5 h, 10 µM rises from 86% to 106%.

First: Cc1ccc(OCC(=O)NCCCN(C)C)cc1 [CBK263595]
Second: Cc1ccc(C(=O)Nc2nc3ccc(S(=O)(=O)N(C)C)cc3s2)cc1 [CBK287603]
The viability at 28.5 h, 10 µM of the first is higher: 98.3% for the first, 93.1% for the second.

Going from CCc1noc(C)c1C(=O)Nc1ncc(C)s1 [CBK288244] to CCOC(=O)Cn1ncc2c3sc(C)cc3n(CC)c2c1=O [CBK284185], the viability at 28.5 h, 10 µM falls from 95.4% to 87.1%.

Compared with N#CCC(=O)Nc1ccc(C(=O)N2CCN(c3ccccc3)CC2)cc1 [CBK306060], N#C/C(=C\c1ccc(-c2ccc(C(=O)O)cc2)o1)C(=O)NCc1ccco1 [CBK263322] is higher in viability at 28.5 h, 10 µM: 91.9% for the first, 101% for the second.

Compared with CC1CCN(S(=O)(=O)c2cccc3c(S(=O)(=O)N4CCC(C)CC4)cccc23)CC1 [CBK262071], CC(C)N1C(=O)C2(CC(=O)N(CCCN3C(=O)c4ccccc4C3=O)C2=O)c2cc(F)ccc21 (stereo not shown) [CBK075969] is higher in viability at 28.5 h, 10 µM: 98.2% for the first, 99% for the second.

Compared with COc1ccc(C(=O)Nc2c(Cl)ccc3nsnc23)cc1 [CBK270252], CCOC(=O)Cn1ccc2ccnc(-c3cccc(OC)c3)c21 [CBK284707] is higher in viability at 28.5 h, 10 µM: 87.2% for the first, 89.6% for the second.

Compared with CCCN(C(=O)CCn1c(=O)oc2cc(Cl)ccc21)C1CCNC1 (stereo not shown) [CBK304311C], Cc1cc(CNC(=O)C2CC(=O)N(Cc3ccccn3)C2)ccc1F (stereo not shown) [CBK305557] is lower in viability at 28.5 h, 10 µM: 90.5% for the first, 77.3% for the second.

Going from Cc1cc(NC(=O)CN2CCCC2CC(O)c2ccccc2)no1 (stereo not shown) [CBK305139] to CCN1CCC[C@@H]1CNC(=O)c1ccncc1 [CBK174659], the viability at 28.5 h, 10 µM rises from 88.8% to 113%.

Going from c1coc(-c2cn3ccnc3c(Nc3ccc4[nH]ccc4c3)n2)c1 [CBK037361] to Cc1ccc(Nc2cc(-c3cccc(N)c3)ncn2)cc1NS(C)(=O)=O [CBK091145], the viability at 28.5 h, 10 µM rises from 91.9% to 99.1%.

Going from CC1Cc2ccccc2N1C(=O)CSc1nnc(N)s1 (stereo not shown) [CBK269530] to CCn1c(CNC(=O)c2cn3cc(C)ccc3n2)nc2ccccc21 [CBK281395], the viability at 28.5 h, 10 µM falls from 94.3% to 89.4%.

Compared with Oc1cccc(OCCOc2nccc(C(F)(F)F)n2)c1 [CBK115903], O=C(O)c1cc(-n2c(S)nnc2-c2cnccn2)ccc1Cl [CBK269285] is lower in viability at 28.5 h, 10 µM: 92.7% for the first, 86.2% for the second.

Compared with CCOC(=O)c1c(NC(=O)Cn2cnc([N+](=O)[O-])n2)sc2c1CCCC2 [CBK262583], Cc1ccc(-c2cc(=O)c3cc(OCC(=O)Nc4sc5c(c4C#N)CCCC5)ccc3o2)cc1 [CBK269062] is higher in viability at 28.5 h, 10 µM: 88.4% for the first, 96.6% for the second.

Compared with C=CCC(NCc1ccccc1)c1ccc(C(=O)O)o1 (stereo not shown) [CBK286591], C/C(=N\NC(=O)CCC(=O)Nc1ccccc1C)c1ccc(O)cc1O [CBK261946] is higher in viability at 28.5 h, 10 µM: 84.1% for the first, 94.2% for the second.

Going from O=C(CCCC1CC1)N1CCn2c(nnc2-c2cncc(Br)c2)C1 [CBK304767] to CC(C)(C)OC(=O)N1CCC(NCCc2ccccn2)C1 (stereo not shown) [CBK304839], the viability at 28.5 h, 10 µM falls from 96.4% to 94.2%.

Compared with CCN(CC)C(=O)c1sccc1NS(=O)(=O)c1ccc(OC)c(OC)c1 [CBK004596], CCc1c(C)nc2ccccc2c1[S+]([O-])CCC(=O)OC (stereo not shown) [CBK155467T] is lower in viability at 28.5 h, 10 µM: 94.3% for the first, 91.8% for the second.

Compared with Cc1nc2ncnn2c(C)c1CCC(=O)Nc1cccc(CCc2ccncc2)c1 [CBK285557], Cc1cccc2sc(NC(=O)CCCCCNC(N)=O)nc12 [CBK296689] is higher in viability at 28.5 h, 10 µM: 99.8% for the first, 106% for the second.

Work on CCCC(CCC)NC(=O)c1ccc(-n2nc(C(=O)OCC)c(Cl)c2C)cc1 [CBK114323] yielded a viability at 28.5 h, 10 µM of 93.9%.

Same assay, conditions: human, hela cells, % viability, bulk resorufin, single well

COC(=O)CC1(CC(=O)OC)C(=O)N(C)C(=O)N(C)C1=O [CBK268554] showed a viability at 28.5 h, 10 µM of 98.5%.
